Key:
[1] = system: Pea aphid; test: Residual (7-day) contact activity, pea aphid; type: in vivo, Acyrthosiphon pisum [Harris]; details: Acyrthosiphon pisum, 168 h, residual 7-day, PA, read-out: Percent Kill
[2] = system: Southern armyworm; test: Residual (7-day) contact activity, southern armyworm; type: in vivo, Spodoptera eridania [Cram.]; details: Spodoptera eridania, 168 h, residual 7-day, AW, read-out: Percent Kill
Method in brief: (§1)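 Treated surfaces were dried and weathered under normal light and air for 7 days before organisms were introduced. Southern armyworm and mites on dipped pinto bean leaves; milkweed bug and plum curculio in sprayed glass containers. Percent kill counted after 48 h exposure at 80° F, 50% RH.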

[3] = system: Milkweed bug; test: Residual (7-day) contact activity, milkweed bug; type: in vivo, Oncopeltus fasciatus [Dallas]; details: Oncopeltus fasciatus, 168 h, residual 7-day, MWB, read-out: Percent Kill
Method in brief: as §1

[4] = system: Mexican bean beetle; test: Systemic activity, soil-watering, Mexican bean beetle; type: in vivo, Epilachna varivestis Muls.; details: Epilachna varivestis, 48 h, systemic, BB, read-out: Percent Kill
Method in brief: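 Compound in acetone/water with surfactant, diluted to target concentrations; 25 ml poured onto soil of potted host plants without touching foliage. After three days for translocation, leaves infested with beetle or armyworm larvae, aphids or mites; living and dead counted two days later.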

[5] = system: Milkweed bug; test: Initial contact activity, spray, milkweed bug; type: in vivo, Oncopeltus fasciatus [Dallas]; details: Oncopeltus fasciatus, 48 h, initial, MWB, 48 hours, read-out: Percent Kill
Method in brief: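 Various active-ingredient concentrations, diluted with water from 1250 ppm. Contact exposure by dip, direct spray or dried residue depending on species; scored as percent kill at 48 h.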

[6] = system: Granary Weevil; test: Initial contact activity, granary weevil; type: in vivo; details: Sitophilus granarius, 48 h, initial, GW, 48 hours, read-out: Percent Kill
[7] = system: Southern armyworm; test: Initial contact activity, leaf dip, southern armyworm; type: in vivo, Spodoptera eridania [Cram.]; details: Spodoptera eridania, foliar, 48 h, initial, AW, 48 hours, read-out: Percent Kill
[8] = system: Pea aphid; test: Initial contact activity, leaf dip, pea aphid; type: in vivo, Acyrthosiphon pisum [Harris]; details: Acyrthosiphon pisum, foliar, 48 h, initial, PA, 48 hours, read-out: Percent Kill
[9] = system: Granary Weevil; test: Residual (7-day) contact activity, granary weevil; type: in vivo; details: Sitophilus granarius, 168 h, residual 7-day, GW, read-out: Percent Kill
[10] = system: Mexican bean beetle; test: Residual (7-day) contact activity, Mexican bean beetle; type: in vivo, Epilachna varivestis Muls.; details: Epilachna varivestis, 168 h, residual 7-day, BB, read-out: Percent Kill
[11] = system: Confused flour beetle; test: Residual (7-day) contact activity, confused flour beetle; type: in vivo, Tribolium confusum duVal; details: Tribolium confusum, 168 h, residual 7-day, FB, read-out: Percent Kill
Protocol: (§2) Initial Contact Activity: One half gram of test compound was dissolved in 40 ml of acetone and this solution was dispersed in 360 ml of water containing one drop of isooctylphenyl polyethoxyethanol. Aliquots of this solution, which corresponds to 1250 ppm of active ingredient, were diluted with an appropriate amount of water to provide solutions containing various concentrations of active ingredient. Test organisms and techniques were as follows: The activity against the Mexican bean beetle (Epilachna varivestis Muls.) and the southern armyworm (Spodoptera eridania [Cram.]) was evaluated by dipping the leaves of pinto bean plants into the test solution and infesting the leaves with the appropriate immature-form insects when the foiliage had dried; the activity against the pea aphid (Acyrthosiphon pisum [Harris]) was evaluated on broad bean plants whose leaves were dipped before infestation with adult aphids; the activity against two-sotted spider mites (Tetranychus urticae Koch) was evaluated on pinto bean plants whose leaves were dipped after infestation with adult mites; the activity against the milkweed bug (Oncopeltus fasciatus [Dallas]), and the plum curculio (Conotrachelus nenuphar [Herbst]) was evaluated by spraying the test solutions into glass dishes or jars containing the adult insects; the activity against the confused flour beetle (Tribolium confusum duVal) was evaluated by introducing the insects into glass dishes which had been previously sprayed with test solution and allowed to dry. All organisms in the test were maintained in a holding room at 80° F and 50% relative humidity for an exposure period of 48 hours. At the end of this time, the dead and living insects or mites were counted, and the percent kill was calculated.
Residual Contact Activity: The residual contact activity of the compounds was determined on the same organisms using the techniques described above, except that in each case the treated surface was allowed to dry and was exposed to normal light and air for seven days before introduction of the mites or insects.

[12] = Toxicity to rats, acute oral median lethal dose (LD50), Method A; type: in vivo, young female albino rats, derived from Sprague-Dawley stock; details: in vivo, rat, corn oil, 14 days observation
Protocol: (§3) Method A: Young female albino rats, derived from Sprague-Dawley stock and weighing between 175 and 200 g, were used. An initial screening was conducted to determine the general level of toxicity of the test compounds and to establish the dosing range to be used with each compound. The test materials were suspended in corn oil and administered directly into the stomachs of the rats, using a hypodermic syringe equipped with a ball-tipped intubating needle. A range of dosing levels was employed utilizing two rats at each level. […] This method was used to determine the toxicity to rats of the compounds of Examples I, II, and III and aldicarb.

[13] = system: rats; test: as above; type: in vivo, young female albino rats, derived from Sprague-Dawley stock; details: rat
Protocol: as §3

[14] = system: Confused flour beetle; test: Initial contact activity, sprayed dishes, confused flour beetle; type: in vivo, Tribolium confusum duVal; details: Tribolium confusum, initial, FB, 48 hours, read-out: Percent Kill
Protocol: as §2

[15] = system: Plum curculio; test: Initial contact activity, spray, plum curculio; type: in vivo, Conotrachelus nenuphar [Herbst]; details: Conotrachelus nenuphar, initial, PC, 48 hours, read-out: Percent Kill
Protocol: as §2

Structure (SMILES): CCCCN(CCCC)SN(C)C(=O)ON=CC(C)(C)SC [Example III, 2-methyl-2-(methylthio)propanal O-[(dibutylaminosulfenyl)(methyl)carbamoyl]oxime]
- mortality at 156 ppm ([1]; 156 PPM): 0%
- mortality at 312 ppm ([1]; 312 PPM): 0%
- mortality at 1250 ppm ([1]; 1250 PPM): 0%
- mortality at 312 ppm ([2]; 312 PPM): 0%
- mortality at 1250 ppm ([2]; 1250 PPM): 0%
- mortality at 156 ppm ([3]; 156 PPM): 20%
- mortality at 312 ppm ([3]; 312 PPM): 70%
- mortality at 1250 ppm ([3]; 1250 PPM): 100%
- mortality at 39 ppm ([4]; 39 PPM): 20%
- mortality at 156 ppm ([4]; 156 PPM): 100%
- mortality at 10 ppm ([5]; 10 PPM): 5%
- mortality at 39 ppm ([5]; 39 PPM): 16%
- mortality at 156 ppm ([5]; 156 PPM): 100%
- mortality at 1250 ppm ([5]; 1250 PPM): 100%
- mortality at 156 ppm ([6]; 156 PPM): 100%
- mortality at 312 ppm ([6]; 312 PPM): 100%
- mortality at 1250 ppm ([6]; 1250 PPM): 100%
- mortality at 156 ppm ([7]; 156 PPM): 0%
- mortality at 312 ppm ([7]; 312 PPM): 0%
- mortality at 625 ppm ([7]; 625 PPM): 0%
- mortality at 1250 ppm ([7]; 1250 PPM): 20%
- mortality at 10 ppm ([8]; 10 PPM): 53%
- mortality at 39 ppm ([8]; 39 PPM): 19%
- mortality at 156 ppm ([8]; 156 PPM): 100%
- mortality at 1250 ppm ([8]; 1250 PPM): 100%
- mortality at 312 ppm ([9]; 312 PPM): 0%
- mortality at 1250 ppm ([9]; 1250 PPM): 17%
- mortality at 312 ppm ([10]; 312 PPM): 0%
- mortality at 1250 ppm ([10]; 1250 PPM): 92%
- mortality at 312 ppm ([11]; 312 PPM): 0%
- mortality at 1250 ppm ([11]; 1250 PPM): 0%
- LD50 at 336 h [12]: 12.5 mg/kg
- LD50 relative to that of aldicarb [13]: 25 times
- Enhancement LD50 Derivative/LD50 Aldicarb ([13]; ratio to aldicarb): 25
- mortality at 156 ppm ([14]; 156 PPM): 0%
- mortality at 312 ppm ([14]; 312 PPM): 7.5%
- mortality at 1250 ppm ([14]; 1250 PPM): 70%
- mortality at 10 ppm ([15]; 10 PPM): 0%
- mortality at 39 ppm ([15]; 39 PPM): 5%
- mortality at 156 ppm ([15]; 156 PPM): 0%
- mortality at 1250 ppm ([15]; 1250 PPM): 55%

From US4108991A, “N-aminosulfenyl derivatives of aldicarb” (priority 1976, dated 1978)
